The record followed here is US20250163104A1, “MACROCYCLIC IMMUNOMODULATORS” (priority 2021, published 2025).

Where a SMILES comes first, the peptide text is derived from it. Bridges are numbered along the chain shown (N, C = ends). [ ]: non-standard residue; d: D form. The star is where a group is joined. Phe(4-COOH) = N[C@@H](Cc1ccc(C(=O)O)cc1)C(=O)O; Bip = N[C@@H](Cc1ccc(-c2ccccc2)cc1)C(=O)O; Phe(3-Me) = Cc1cccc(C[C@H](N)C(=O)O)c1; 4Pal = N[C@@H](Cc1ccncc1)C(=O)O; Cit = NC(=O)NCCC[C@H](N)C(=O)O; Carboxymethyl = O=C(O)C*; Nle = CCCC[C@H](N)C(=O)O; Orn = NCCC[C@H](N)C(=O)O; Dab = NCC[C@H](N)C(=O)O; Dap = NC[C@H](N)C(=O)O

For the experiment, the target named is T1, human PD-1 / PD-L1-Ig binding on Jurkat cell line over-expressing human PD-1 (Jurkat-PD-1) (Homo sapiens, UniProt Q15116).
T1 construct: expressed in transfected cells; host or cells: Jurkat
T1 sequence (Q15116 25-288): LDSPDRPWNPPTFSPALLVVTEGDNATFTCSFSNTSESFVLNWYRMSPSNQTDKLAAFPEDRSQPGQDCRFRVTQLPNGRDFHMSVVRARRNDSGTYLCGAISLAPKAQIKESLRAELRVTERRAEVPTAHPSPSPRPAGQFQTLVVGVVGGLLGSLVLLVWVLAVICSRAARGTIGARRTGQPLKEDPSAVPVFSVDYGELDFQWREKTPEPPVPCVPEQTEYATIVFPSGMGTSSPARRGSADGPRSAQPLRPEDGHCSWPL
Briefly: Jurkat-PD-1 Cell Binding High-Content Screening Assay (CBA). Format: cell-based. The conditions noted are these: Jurkat-PD-1 cells, PE-labeled PD-L1-Ig 20 nM final; read-out: Jurkat HPD1_PDL1 IC50. The procedure, abridged:
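Compounds were preincubated with Jurkat-hPD-1 cells in DMEM plus 10% fetal calf serum for 2 h at 37° C. Phycoerythrin-labeled PD-L1-Ig (20 nM final) was then added for 1 hour. Cells were fixed in 4% paraformaldehyde with Hoechst 33342, and bound fluorescence was quantified by high-content imaging.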
The term IC50 denotes the concentration at which inhibition is half-maximal. Consider `CC[C@H](C)[C@@H]1NC(=O)[C@H](Cc2ccc(-c3ccccc3)cc2)NC(=O)[C@H](C(C)C)NC(=O)[C@H](Cc2cccc(C)c2)NC(=O)[C@H](CC(=O)O)NC(=O)[C@H](Cc2ccc(C(=O)O)cc2)NC(=O)[C@H](Cc2ccncc2)NC(=O)CSC[C@@H](C(=O)N[C@@H](C)C(N)=O)NC(=O)[C@H]([C@@H](C)O)NC(=O)[C@H](C(C)C)NC(=O)[C@H](CC2CCCCC2)NC(=O)[C@H](CCN)NC(=O)[C@@H](CC(C)C)NC(=O)[C@H](CCCN)NC1=O` [Compound 1192], for which the IC50 was 7.1 nM.

Regarding `CCCC[C@@H]1NC(=O)[C@H](CCN)NC(=O)[C@@H](CC(C)C)NC(=O)[C@H](CCCN)NC(=O)[C@H](C(C)C)NC(=O)[C@H](Cc2ccc(-c3ccccc3)cc2)NC(=O)[C@H](C(C)C)NC(=O)[C@H](Cc2cccc(C)c2)NC(=O)[C@H](CC(=O)O)NC(=O)[C@H](Cc2ccc(C(=O)O)cc2)NC(=O)[C@H](Cc2ccncc2)NC(=O)CSC[C@@H](C(=O)N[C@@H](C)C(N)=O)NC(=O)[C@H]([C@@H](C)O)NC(=O)[C@H](C(C)C)NC1=O` [Compound 1193] ({CH2CO}-[4Pal][Phe(4-COOH)]D[Phe(3-Me)]V[Bip]V[Orn][dL][Dab][Nle]VTCA-NH2; thioether N-14), the IC50 amounted to 7.7 nM.

Take `Cc1cccc(C[C@@H]2NC(=O)[C@H](CC(=O)O)NC(=O)[C@H](Cc3ccc(C(=O)O)cc3)NC(=O)[C@H](Cc3ccncc3)NC(=O)CSC[C@@H](C(=O)N[C@@H](C)C(N)=O)NC(=O)[C@H]([C@@H](C)O)NC(=O)[C@H](C(C)C)NC(=O)[C@H](CC3CCCCC3)NC(=O)[C@H](CCN)NC(=O)[C@@H](CC(C)C)NC(=O)[C@H](CCCN)NC(=O)[C@H](C(C)C)NC(=O)[C@H](Cc3ccc(-c4ccccc4)cc3)NC(=O)[C@H](C(C)C)NC2=O)c1` [Compound 1194]: the IC50 turned out to be 4.7 nM.

For `CCCC[C@@H]1NC(=O)[C@H](CCN)NC(=O)[C@@H](CC(C)C)NC(=O)[C@H](CCCN)NC(=O)[C@H](CCCNC(N)=O)NC(=O)[C@H](Cc2ccc(-c3ccccc3)cc2)NC(=O)[C@H](C(C)C)NC(=O)[C@H](Cc2cccc(C)c2)NC(=O)[C@H](CC(=O)O)NC(=O)[C@H](Cc2ccc(OCC(=O)O)cc2)NC(=O)[C@H](Cc2ccncc2)NC(=O)CSC[C@@H](C(=O)N[C@@H](C)C(N)=O)NC(=O)[C@H]([C@@H](C)O)NC(=O)[C@H](C(C)C)NC1=O` [Compound 1195] ({CH2CO}-[4Pal]Y(Carboxymethyl)D[Phe(3-Me)]V[Bip][Cit][Orn][dL][Dab][Nle]VTCA-NH2; thioether N-14), the IC50 was found to be 13.8 nM.

Regarding `Cc1cccc(C[C@@H]2NC(=O)[C@H](CC(=O)O)NC(=O)[C@H](Cc3ccc(OCC(=O)O)cc3)NC(=O)[C@H](Cc3ccncc3)NC(=O)CSC[C@@H](C(=O)N[C@@H](C)C(N)=O)NC(=O)[C@H]([C@@H](C)O)NC(=O)[C@H](C(C)C)NC(=O)[C@H](CC3CCCCC3)NC(=O)[C@H](CCN)NC(=O)[C@@H](CC(C)C)NC(=O)[C@H](CCCN)NC(=O)[C@H](CCCNC(N)=O)NC(=O)[C@H](Cc3ccc(-c4ccccc4)cc3)NC(=O)[C@H](C(C)C)NC2=O)c1` [Compound 1196], the IC50 was 8.2 nM.

Consider `CCCC[C@@H]1NC(=O)[C@H](CCN)NC(=O)[C@@H](CC(C)C)NC(=O)[C@H](CCCN)NC(=O)[C@H]([C@@H](C)CC)NC(=O)[C@H](Cc2ccc(-c3ccccc3)cc2)NC(=O)[C@H](C(C)C)NC(=O)[C@H](Cc2cccc(C)c2)NC(=O)[C@H](CC(=O)O)NC(=O)[C@H](Cc2ccc(OCC(=O)O)cc2)NC(=O)[C@H](Cc2ccncc2)NC(=O)CSC[C@@H](C(=O)N[C@@H](C)C(N)=O)NC(=O)[C@H]([C@@H](C)O)NC(=O)[C@H](C(C)C)NC1=O` [Compound 1197], for which the IC50 came to 12 nM.

As for `CC[C@H](C)[C@@H]1NC(=O)[C@H](Cc2ccc(-c3ccccc3)cc2)NC(=O)[C@H](C(C)C)NC(=O)[C@H](Cc2cccc(C)c2)NC(=O)[C@H](CC(=O)O)NC(=O)[C@H](Cc2ccc(OCC(=O)O)cc2)NC(=O)[C@H](Cc2ccncc2)NC(=O)CSC[C@@H](C(=O)N[C@@H](C)C(N)=O)NC(=O)[C@H]([C@@H](C)O)NC(=O)[C@H](C(C)C)NC(=O)[C@H](CC2CCCCC2)NC(=O)[C@H](CCN)NC(=O)[C@@H](CC(C)C)NC(=O)[C@H](CCCN)NC1=O` [Compound 1198], the IC50 was found to be 15.6 nM.

As to `CCCC[C@@H]1NC(=O)[C@H](CCN)NC(=O)[C@@H](CC(C)C)NC(=O)[C@H](CCCN)NC(=O)[C@H](C(C)C)NC(=O)[C@H](Cc2ccc(-c3ccccc3)cc2)NC(=O)[C@H](C(C)C)NC(=O)[C@H](Cc2cccc(C)c2)NC(=O)[C@H](CC(=O)O)NC(=O)[C@H](Cc2ccc(OCC(=O)O)cc2)NC(=O)[C@H](Cc2ccncc2)NC(=O)CSC[C@@H](C(=O)N[C@@H](C)C(N)=O)NC(=O)[C@H]([C@@H](C)O)NC(=O)[C@H](C(C)C)NC1=O` [Compound 1199] ({CH2CO}-[4Pal]Y(Carboxymethyl)D[Phe(3-Me)]V[Bip]V[Orn][dL][Dab][Nle]VTCA-NH2; thioether N-14), the IC50 was 4.1 nM.

`Cc1cccc(C[C@@H]2NC(=O)[C@H](CC(=O)O)NC(=O)[C@H](Cc3ccc(OCC(=O)O)cc3)NC(=O)[C@H](Cc3ccncc3)NC(=O)CSC[C@@H](C(=O)N[C@@H](C)C(N)=O)NC(=O)[C@H]([C@@H](C)O)NC(=O)[C@H](C(C)C)NC(=O)[C@H](CC3CCCCC3)NC(=O)[C@H](CCN)NC(=O)[C@@H](CC(C)C)NC(=O)[C@H](CCCN)NC(=O)[C@H](C(C)C)NC(=O)[C@H](Cc3ccc(-c4ccccc4)cc3)NC(=O)[C@H](C(C)C)NC2=O)c1` [Compound 1200]: the IC50 stood at 5.4 nM.

For `CCCC[C@@H]1NC(=O)[C@H](CCN)NC(=O)[C@@H](CC(C)C)NC(=O)[C@H](CCCN)NC(=O)[C@H](CCCNC(N)=O)NC(=O)[C@H](Cc2ccc(-c3ccccc3)cc2)NC(=O)[C@H](C(C)C)NC(=O)[C@H](Cc2cccc(C)c2)NC(=O)[C@H](CC(=O)O)NC(=O)[C@H](Cc2ccc(C(=O)O)cc2)NC(=O)[C@H](CN)NC(=O)CSC[C@@H](C(=O)N[C@@H](C)C(N)=O)NC(=O)[C@H]([C@@H](C)O)NC(=O)[C@H](C(C)C)NC1=O` [Compound 1201] ({CH2CO}-[Dap][Phe(4-COOH)]D[Phe(3-Me)]V[Bip][Cit][Orn][dL][Dab][Nle]VTCA-NH2; thioether N-14), the IC50 turned out to be 3.4 nM.

As to `Cc1cccc(C[C@@H]2NC(=O)[C@H](CC(=O)O)NC(=O)[C@H](Cc3ccc(C(=O)O)cc3)NC(=O)[C@H](CN)NC(=O)CSC[C@@H](C(=O)N[C@@H](C)C(N)=O)NC(=O)[C@H]([C@@H](C)O)NC(=O)[C@H](C(C)C)NC(=O)[C@H](CC3CCCCC3)NC(=O)[C@H](CCN)NC(=O)[C@@H](CC(C)C)NC(=O)[C@H](CCCN)NC(=O)[C@H](CCCNC(N)=O)NC(=O)[C@H](Cc3ccc(-c4ccccc4)cc3)NC(=O)[C@H](C(C)C)NC2=O)c1` [Compound 1202], the IC50 came out at 9.8 nM.

Consider `CCCC[C@@H]1NC(=O)[C@H](CCN)NC(=O)[C@@H](CC(C)C)NC(=O)[C@H](CCCN)NC(=O)[C@H]([C@@H](C)CC)NC(=O)[C@H](Cc2ccc(-c3ccccc3)cc2)NC(=O)[C@H](C(C)C)NC(=O)[C@H](Cc2cccc(C)c2)NC(=O)[C@H](CC(=O)O)NC(=O)[C@H](Cc2ccc(C(=O)O)cc2)NC(=O)[C@H](CN)NC(=O)CSC[C@@H](C(=O)N[C@@H](C)C(N)=O)NC(=O)[C@H]([C@@H](C)O)NC(=O)[C@H](C(C)C)NC1=O` [Compound 1203], for which the IC50 stood at 47.4 nM.

On to `CC[C@H](C)[C@@H]1NC(=O)[C@H](Cc2ccc(-c3ccccc3)cc2)NC(=O)[C@H](C(C)C)NC(=O)[C@H](Cc2cccc(C)c2)NC(=O)[C@H](CC(=O)O)NC(=O)[C@H](Cc2ccc(C(=O)O)cc2)NC(=O)[C@H](CN)NC(=O)CSC[C@@H](C(=O)N[C@@H](C)C(N)=O)NC(=O)[C@H]([C@@H](C)O)NC(=O)[C@H](C(C)C)NC(=O)[C@H](CC2CCCCC2)NC(=O)[C@H](CCN)NC(=O)[C@@H](CC(C)C)NC(=O)[C@H](CCCN)NC1=O` [Compound 1204], for which the IC50 worked out at 5.7 nM.

On to `CCCC[C@@H]1NC(=O)[C@H](CCN)NC(=O)[C@@H](CC(C)C)NC(=O)[C@H](CCCN)NC(=O)[C@H](C(C)C)NC(=O)[C@H](Cc2ccc(-c3ccccc3)cc2)NC(=O)[C@H](C(C)C)NC(=O)[C@H](Cc2cccc(C)c2)NC(=O)[C@H](CC(=O)O)NC(=O)[C@H](Cc2ccc(C(=O)O)cc2)NC(=O)[C@H](CN)NC(=O)CSC[C@@H](C(=O)N[C@@H](C)C(N)=O)NC(=O)[C@H]([C@@H](C)O)NC(=O)[C@H](C(C)C)NC1=O` [Compound 1205] ({CH2CO}-[Dap][Phe(4-COOH)]D[Phe(3-Me)]V[Bip]V[Orn][dL][Dab][Nle]VTCA-NH2; thioether N-14), for which the IC50 was determined as 10.7 nM.

Turning to `Cc1cccc(C[C@@H]2NC(=O)[C@H](CC(=O)O)NC(=O)[C@H](Cc3ccc(C(=O)O)cc3)NC(=O)[C@H](CN)NC(=O)CSC[C@@H](C(=O)N[C@@H](C)C(N)=O)NC(=O)[C@H]([C@@H](C)O)NC(=O)[C@H](C(C)C)NC(=O)[C@H](CC3CCCCC3)NC(=O)[C@H](CCN)NC(=O)[C@@H](CC(C)C)NC(=O)[C@H](CCCN)NC(=O)[C@H](C(C)C)NC(=O)[C@H](Cc3ccc(-c4ccccc4)cc3)NC(=O)[C@H](C(C)C)NC2=O)c1` [Compound 1206], the IC50 came out at 8.9 nM.

With `CCCC[C@@H]1NC(=O)[C@H](CCN)NC(=O)[C@@H](CC(C)C)NC(=O)[C@H](CCCN)NC(=O)[C@H](CCCNC(N)=O)NC(=O)[C@H](Cc2ccc(-c3ccccc3)cc2)NC(=O)[C@H](C(C)C)NC(=O)[C@H](Cc2cccc(C)c2)NC(=O)[C@H](CC(=O)O)NC(=O)[C@H](Cc2ccc(OCC(=O)O)cc2)NC(=O)[C@H](CN)NC(=O)CSC[C@@H](C(=O)N[C@@H](C)C(N)=O)NC(=O)[C@H]([C@@H](C)O)NC(=O)[C@H](C(C)C)NC1=O` [Compound 1207] ({CH2CO}-[Dap]Y(Carboxymethyl)D[Phe(3-Me)]V[Bip][Cit][Orn][dL][Dab][Nle]VTCA-NH2; thioether N-14), the IC50 is 6.8 nM.
